The values below are quoted from earlier work in patent publication US20210330638A1, “NANO-PENETRATIVE CANNABINOID OIL BLENDS AND COMPOSITIONS AND METHODS OF FORMULATION THEREOF” (Theragun, Inc., priority 2020, published 2021).

The conditions of the data set: in vivo.

Each structure is given as a SMILES string.

As to `CC1=CCC2CC1C2(C)C` (stereo not drawn) [a-Pinene, alpha-pinene], the pulmonary uptake was 60%.
